In patent publication US10899733B2, “Inhibitors of PARPs that catalyze mono-ADP-ribosylation” (OREGON HEALTH & SCIENCE UNIVERSITY, priority 2017, dated 2021):
“And” between values parts separate entries of the source, which are not always exact repeats. Identical values can stand only once.

Assays:
PARP11 = biological target: T1, PARP11 (Homo sapiens, UniProt Q9NR21); assay: Inhibition of PARP11-mediated ADP-ribosylation of SRPK2 using NAD+ (100 μM); assay type: biochemical; conditions: for IC50 / PARP11 pIC50 ± S.E.M.: ADP-ribosylation of SRPK2, NAD+ 100 μM
T1 sequence (Q9NR21 1-338): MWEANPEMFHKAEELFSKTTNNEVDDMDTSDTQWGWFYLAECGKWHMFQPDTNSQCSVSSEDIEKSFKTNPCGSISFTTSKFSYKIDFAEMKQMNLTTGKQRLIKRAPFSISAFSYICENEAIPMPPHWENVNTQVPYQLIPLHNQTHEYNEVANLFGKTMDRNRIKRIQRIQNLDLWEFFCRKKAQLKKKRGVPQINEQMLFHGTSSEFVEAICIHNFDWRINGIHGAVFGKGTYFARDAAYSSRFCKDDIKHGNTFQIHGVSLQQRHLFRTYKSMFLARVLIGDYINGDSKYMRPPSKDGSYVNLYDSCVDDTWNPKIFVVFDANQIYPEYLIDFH

PARP10cat = biological target: T2, PARP10cat (Homo sapiens, UniProt Q53GL7); assay: Inhibition of PARP10cat-mediated ADP-ribosylation of SRPK2 using NAD+ (100 μM); assay type: biochemical; conditions: for IC50 / PARP10cat pIC50 ± S.E.M.: ADP-ribosylation of SRPK2, NAD+ 100 μM; for PARP11/PARP10: ratio of IC50 values, PARP11 over PARP10cat; for increase in potency for PARP10 compared to comparator compound: 8 and 3 compared to unsubstituted 1, 14 compared to 3; for improvement in selectivity for PARP10 over PARP11 compared to parent compound: 12 vs 8, 14 vs 3, 20, 22 vs 16, 23, 24 vs 15
T2 sequence (Q53GL7 806-1025 limits assumed): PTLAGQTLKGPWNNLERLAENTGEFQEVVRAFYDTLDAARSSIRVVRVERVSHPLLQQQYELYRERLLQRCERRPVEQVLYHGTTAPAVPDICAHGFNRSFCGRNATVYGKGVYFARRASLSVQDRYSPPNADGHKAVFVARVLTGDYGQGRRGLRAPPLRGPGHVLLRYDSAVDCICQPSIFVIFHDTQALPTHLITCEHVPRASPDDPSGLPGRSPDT

[1] = Aqueous solubility observed when assaying; assay type: physicochemical; conditions: observed in assays

SMILES | IC50 (PARP11) [µM] | PARP11 pIC50 ± S.E.M. (PARP11) | IC50 (PARP10cat) [nM] | PARP10cat pIC50 ± S.E.M. (PARP10cat) | PARP11/PARP10 (PARP10cat) | selectivity for PARP10 over PARP11 (PARP10cat) | increase in potency for PARP10 compared to comparator compound (PARP10cat) [fold] | selectivity for PARP11 over PARP10 (PARP11) [fold] | decrease in potency for PARP11 compared to compound 8 (PARP11) [fold] | improvement in selectivity for PARP10 over PARP11 compared to parent compound (PARP10cat) [fold] | aqueous solubility [1]
O=C1NCCc2c(Br)cccc21 [Compound 2] | 2.9 | 5.54 ± 0.04 | 10100 | 4.99 ± 0.04 | 0.29 | – | – | – | – | – | –
Cc1cccc2c1CCNC2=O [Compound 3, 5-methyl-dq] | 2.1 | 5.67 ± 0.05 | 8600 | 5.01 ± 0.03 | 0.24 | 0.24 fold | 8 | – | – | – | –
O=C1NCCc2c1cccc2-c1ccccc1 [Compound 4] | 1.2 | 5.93 ± 0.04 | 35000 | 4.46 ± 0.04 | 0.03 | – | – | 30 | – | – | –
O=C1NCCc2cc(Br)ccc21 [Compound 5] | 13.5 | 4.87 ± 0.03 | 17100 | 4.77 ± 0.03 | 0.79 | – | – | – | – | – | –
Cc1ccc2c(c1)CCNC2=O [Compound 6] | 34.1 | 4.47 ± 0.06 | 33100 | 4.48 ± 0.04 | 1.0 | – | – | – | – | – | –
O=C1NCCc2cc(Cc3ccccc3)ccc21 [Compound 7] | 16.7 | 4.78 ± 0.03 | – | – | <0.33 | – | – | – | – | – | –
O=C1NCCc2cc(-c3ccccc3)ccc21 [Compound 8] | 8.7 | 5.06 ± 0.03 | 2500 | 5.61 ± 0.03 | 3.5 | 4 fold | 28 | – | – | – | –
O=C1NCCc2cc(-c3cccc(F)c3)ccc21 [Compound 9] | 6.1 | 5.22 ± 0.04 | 1400 | 5.85 ± 0.03 | 4.4 | – | – | – | – | – | –
O=C1NCCc2cc(-c3cccc(Cl)c3)ccc21 [Compound 10] | 5.8 | 5.24 ± 0.03 | 1100 | 5.95 ± 0.02 | 5.3 | – | – | – | – | – | –
Cc1cccc(-c2ccc3c(c2)CCNC3=O)c1 [Compound 11] | 4.6 | 5.34 ± 0.03 | 2100 | 5.67 ± 0.02 | 2.2 | – | – | – | – | – | –
O=C1NCCc2cc(-c3cccc(C(F)(F)F)c3)ccc21 [Compound 12] | 17.4 | 4.76 ± 0.04 | 2300 | 5.65 ± 0.03 | 7.6 | 8 fold | – | – | 2 | 2 | –
Cc1c(-c2ccccc2)ccc2c1CCNC2=O [Compound 14, 5-methyl-6-phenyl-3,4-dihydroisoquinolin-1(2H)-one] | 26.4 | 4.58 ± 0.07 | – | 5.80 ± 0.03 | 17 | 17 fold | 5 | – | – | 70 | aqueous solubility issues at higher concentrations
Cc1c(-c2cccnc2)ccc2c1CCNC2=O [Compound 15, 5-methyl-6-(pyridiny-3-yl)-3,4-dihydroisoquinolin-1(2H)-one] | 30.4 | 4.52 ± 0.06 | 2500 | 5.60 ± 0.04 | 12 | 12 fold | – | – | – | – | increased solubility compared to 14
Cc1c(-c2ccncc2)ccc2c1CCNC2=O [Compound 16, 5-methyl-6-(pyridiny-4-yl)-3,4-dihydroisoquinolin-1(2H)-one] | 21.2 | 4.67 ± 0.04 | 1400 | 5.84 ± 0.03 | 15 | 15 fold | – | – | – | – | increased solubility compared to 14
Cc1c(-c2ccc3[nH]ccc3c2)ccc2c1CCNC2=O [Compound 17, 6-(1H-indol-5-yl)-5-methyl-3,4-dihydroisoquinolin-1(2H)-one] | 4.2 | 5.38 ± 0.04 | 1100 | 5.96 ± 0.03 | 3.8 | 4 fold | – | – | – | – | –
Cc1c(-c2cnc3[nH]ccc3c2)ccc2c1CCNC2=O [Compound 18, 5-methyl-6-(1H-pyrrolo[2,3-b]pyridin-5-yl)-3,4-dihydroisoquinolin-1(2H)-one] | 12 | 4.92 ± 0.05 | 710 | 6.15 ± 0.03 | 17 | 17 fold | – | – | – | – | –
Cc1c(-c2cnc3ccccc3c2)ccc2c1CCNC2=O [Compound 19, 5-methyl-6-(quinolin-3-yl)-3,4-dihydroisoquinolin-1(2H)-one] | 14 | 4.86 ± 0.04 | 1800 | 5.75 ± 0.02 | 7.8 | 8 fold | – | – | – | – | –
Cc1c(-c2ccnc(F)c2)ccc2c1CCNC2=O [Compound 20, 6-(2-fluoropyridin-4-yl)-5-methyl-3,4-dihydroisoquinolin-1(2H)-one] | 44.7 | 4.35 ± 0.05 | 1900 | 5.71 ± 0.03 | 24 | 24 fold | – | – | – | ~2 | –
Cc1c(-c2ccnc(Cl)c2)ccc2c1CCNC2=O [Compound 21, 6-(2-chloropyridin-4-yl)-5-methyl-3,4-dihydroisoquinolin-1(2H)-one] | 27 | 4.57 ± 0.02 | 1800 | 5.76 ± 0.03 | 15 | retained similar selectivity | – | – | – | – | –
Cc1c(-c2cncc(F)c2)ccc2c1CCNC2=O [Compound 23, 6-(5-fluoropyridin-3-yl)-5-methyl-3,4-dihydroisoquinolin-1(2H)-one] | 54.7 | 4.23 ± 0.03 | 2200 | 5.66 ± 0.02 | 25 | 25 fold | – | – | – | – | –
Cc1c(-c2cncc(C(F)(F)F)c2)ccc2c1CCNC2=O [Compound 24, 5-methyl-6-(5-(trifluoromethyl)pyridin-3-yl)-3,4-dihydroisoquinolin-1(2H)-on] | 92.1 | 4.04 ± 0.03 | – | 5.57 ± 0.03 | 34 | 34 fold and 35 fold | – | – | – | – | –
NC(=O)c1ccc(Oc2ccc(C(N)=O)cc2)cc1 [OUL35, 4,4′-oxydibenzamide, reference compound] | 2.1 | 5.68 ± 0.03 | – | – | – | – | – | – | – | – | –
